Results on seven compounds are retold here after BindingDB's records for doi:10.1021/jm00169a007 (University of Arizona, 1990).

The structures appear in SMILES notation. Positions of bridges follow the written chain, without caps; N, C: chain ends. Residues, ends and D or L forms follow the SMILES beside them.

A short description of the assay: Binding affinity against Opioid receptor delta 1 in guinea pig brain homogenate using [3H]- DPDPE as radioligand.
The IC50 is the concentration that inhibits the measured activity by half. A high value points to a need for much substance. In turn, `CC[C@H](C)[C@H](NC(=O)[C@H](CCCNC(=N)N)NC(=O)[C@H](CCCNC(=N)N)NC(=O)[C@H](CC(C)C)NC(=O)[C@H](Cc1ccccc1)NC(=O)CNC(=O)CNC(=O)[C@@H](N)Cc1ccc(O)cc1)C(=O)N[C@@H](CCCNC(=N)N)C(=O)N1CCC[C@H]1C(=O)N[C@@H](CCCCN)C(=O)N[C@@H](CC(C)C)C(=O)N[C@@H](CCCCN)C(N)=O` registered an IC50 of 4.1 nM.

`C[C@H]1NC(=O)[C@H](CCCNC(=N)N)NC(=O)[C@H](CCCNC(=N)N)NC(=O)[C@@H](NC(=O)[C@H](Cc2ccccc2)NC(=O)CNC(=O)CNC(=O)[C@@H](N)Cc2ccc(O)cc2)CSSC[C@@H](C(N)=O)NC(=O)[C@@H]2CCCN2C(=O)[C@H](CCCNC(=N)N)NC1=O` yielded an IC50 of 19 nM.

`CC(C)C[C@H](NC(=O)[C@H](Cc1ccccc1)NC(=O)CNC(=O)CNC(=O)[C@@H](N)Cc1ccc(O)cc1)C(=O)N[C@@H](CCCNC(=N)N)C(=O)N[C@@H](CCCNC(=N)N)C(=O)N[C@@H]1CSSC[C@H](C(N)=O)NC(=O)[C@H](CC(C)C)NC(=O)[C@H](CCCCN)NC(=O)[C@@H]2CCCN2C(=O)[C@H](CCCNC(=N)N)NC1=O` had a half-maximal inhibitory concentration (IC50) of 14 nM.

Turning to `CC(C)C[C@@H]1NC(=O)[C@H](CCCCN)NC(=O)[C@@H]2CCCN2C(=O)[C@H](CCCNC(=N)N)NC(=O)[C@@H](NC(=O)[C@H](CCCNC(=N)N)NC(=O)[C@H](CCCNC(=N)N)NC(=O)[C@H](CC(C)C)NC(=O)[C@H](Cc2ccccc2)NC(=O)CNC(=O)CNC(=O)[C@@H](N)Cc2ccc(O)cc2)CSSC[C@@H](C(N)=O)NC1=O`, the concentration for half-maximal inhibition (IC50) turned out to be 4 nM.

For `CC[C@H](C)[C@H](NC(=O)[C@H](CCCNC(=N)N)NC(=O)[C@H](CCCNC(=N)N)NC(=O)[C@H](CC(C)C)NC(=O)[C@H](Cc1ccccc1)NC(=O)CNC(=O)CNC(=O)[C@@H](N)Cc1ccc(O)cc1)C(=O)N[C@@H](CCCNC(=N)N)C(=O)N1CCC[C@H]1C(=O)N[C@@H](CCCCN)C(N)=O`, the concentration for half-maximal inhibition (IC50) was 7 nM.

For `CC(C)C[C@@H]1NC(=O)[C@H](CCCCN)NC(=O)[C@@H]2CCCN2C(=O)[C@H](CCCNC(=N)N)NC(=O)[C@H](NC(=O)[C@H](CCCNC(=N)N)NC(=O)[C@H](CCCNC(=N)N)NC(=O)[C@H](CC(C)C)NC(=O)[C@H](Cc2ccccc2)NC(=O)CNC(=O)CNC(=O)[C@@H](N)Cc2ccc(O)cc2)CSSC[C@@H](C(N)=O)NC1=O`, the IC50 came to 104 nM.

With `CC[C@H](C)[C@@H]1NC(=O)[C@H](CCCNC(=N)N)NC(=O)[C@H](CCCNC(=N)N)NC(=O)[C@@H](NC(=O)[C@H](Cc2ccccc2)NC(=O)CNC(=O)CNC(=O)[C@@H](N)Cc2ccc(O)cc2)CSSC[C@@H](C(N)=O)NC(=O)[C@@H]2CCCN2C(=O)[C@H](CCCNC(=N)N)NC1=O` (H-YGGFCRRIRPC-NH2; disulfide 5-11), the IC50 worked out at 1.6 nM.
